From ChEMBL document CHEMBL1649240, “Brain penetration of colistin in mice assessed by a novel high-performance liquid chromatographic technique” (Antimicrob Agents Chemother, 2009)

Legend:
Type in all cases: ADME, organism-based
Design in all cases: dose 5 mg/kg, route intravenous
Brain [1] = assay: Drug level in mouse brain homogenate assessed as compound recovery after 4 hr post dose measured on basis of intraday target compound concentration of 93.8 ng/g of brain tissue at 5 mg/kg, iv bolus dose by HPLC; conditions: in vivo
Brain [2] = assay: Drug level in mouse brain homogenate assessed as compound recovery after 4 hr post dose measured on basis of intraday target compound concentration of 375 ng/g of brain tissue at 5 mg/kg, iv bolus dose by HPLC; conditions: in vivo
Brain [3] = assay: Drug level in mouse brain homogenate assessed as compound recovery after 4 hr post dose measured on basis of intraday target compound concentration of 3000 ng/g of brain tissue at 5 mg/kg, iv bolus dose by HPLC; conditions: in vivo
[4] = Ratio of drug level in brain to plasma in Swiss mouse at 5 mg/kg, iv

- Activity (Brain [1]): 87%
- Activity (Brain [2]): 86%
- Activity (Brain [3]): 96%
- Ratio [4]: 0.02
Sequence: COLISTIN
